Values of other authors as cited in patent US20030211945A1, “Natural herbicide compositions” (priority 2002, published 2003).
Like-named read-outs stand apart in the source and are kept apart here.

System: selected weeds

CC(=O)O [acetic acid]
weed control (concentrations of acetic acid below about 5%): variable results
weed control (high concentrations of acetic acid): control selected weeds
